Measured values as given in patent publication US11565998B2, “Succinate prodrug, compositions containing the succinate prodrug and uses thereof” (ABLIVA AB, priority 2019, dated 2023).

Assays:
[1] = Mineral instability (inorganic salts in water); type: physicochemical; conditions: for Percentage of Compound 1 remaining compared to T = 0: 1 mg/ml, room temperature
Method: Compound 1 Batch 14 (2-3 mg) was dissolved in water for injection at room temperature (WFI) (1 mg/ml) containing different sources of minerals commonly found in tap water (with different accompanying counter ions to be able to distinguish differences between the effects of cation or anion) and samples were taken at different time intervals for HPLC analysis.
Mineral sources used in the form of inorganic salts:
CuCl2, CaCl2), NiSO4, CoCl2, NH4Cl, MnCl2, NaF, NaNO3, CuSO4, Ca(NO3)2, AlSO4, CaCO3, (NH4)2CO3.

[2] = tested on: microsomes (Sekisui XenoTech); experiment: Succinate release on incubation with microsomes (LCMS); type: in vitro ADME; conditions: for Compound 1 detected by LCMS: microsomes 0.5 mg/mL, NADPH, malonate
Method: In brief, a stock of Compound 1 Batch 12 was prepared in 50/50 DMSO/MeCN (200 mM, ×200). This mixture was then diluted 1 in 10 into microsome buffer (20 mM, ×20) consisting of K2HPO4 (Sigma Aldrich, 13.9 g/L, anhydrous), KH2PO4 (Sigma Aldrich, 2.72 g/L, anhydrous), MgCl2.6H2O (Fisher, 1.02 g/L) and EDTA (Sigma Aldrich, 0.375 g/L) dissolved in HPLC grade water. A 200 mM malonic acid (Sigma Aldrich) stock was then prepared in microsome buffer (200 mM, ×20). A 20 mM NADPH stock was also prepared in microsome buffer (20 mM, ×10). A stock of microsomes (Sekisui XenoTech, 0.625 mg/ml) was prepared in a 7 ml vial. Samples were prepared for each timepoint (T=0, 5, 15, 60 mins) as follows: 80 μL microsome stock (0.5 mg/mL final concentration), 5 μL of Compound stock ([…]), 5 μL of malonate stock (10 mM final concentration). The T=0 sample was quenched by adding 100 μL MeOH. Reaction of all timepoints was then initiated with addition of 10 μL NADPH stock (2 mM final concentration). At each timepoint, the reaction was terminated by the addition of 100 μL MeOH. Samples were shaken for 1 min, placed on ice for 10 min, then centrifuged at 3000 rpm for 10 minutes. The supernatant was then analysed by LCMS.

[3] = Solubility in aqueous formulations in comparison to other succinate prodrugs; type: physicochemical; conditions: thermodynamic from solid
Method: Solubility of Compound 1 in aqueous formulations in comparison to other succinate prodrugs was assessed by dissolving solid material in aqueous formulations and measuring the quantity in solution by HPLC (−MS). […] In many cases the max solubility of other prodrugs was lower than 100 uM. See Table 21 for example solubility data in PBS pH7.4 for other succinate prodrugs.

[4] = Stability in purified (HPLC grade) or non-purified (tap) water; type: physicochemical; conditions: room temperature, 6 days
Method: A side-by-side experiment of the stability of Compound 1 in ‘purified’ HPLC grade water (Fisher Scientific) and ‘non-purified’ tap water was set up. In brief, 1 mg/mL solutions of Compound 1 were generated in ‘purified’ HPLC grade water (Fisher Scientific) and ‘non-purified’ tap water. These were incubated at room temperature for up to 10 days. Concentration and purity of Compound 1 was assessed over time by HPLC in comparison to a standard (AUC of 8.21 RT peak at 230 nm for calculated concentration and AUC of Compound 1 peak vs impurities for purity analysis). Data presented is the average of two samples.

Percentage of Compound 1 remaining compared to T = 0 ([1]; (NH4)2CO3 in water, batch 14, day 0): 100%
Percentage of Compound 1 remaining compared to T = 0 ([1]; (NH4)2CO3 in water, batch 14, day 7): 91.3%
Percentage of Compound 1 remaining compared to T = 0 ([1]; (NH4)2CO3 in water, batch 14, day 14): 87.4%
Percentage of Compound 1 remaining compared to T = 0 ([1]; AlSO4 in water, batch 14, day 0): 100%
Percentage of Compound 1 remaining compared to T = 0 ([1]; AlSO4 in water, batch 14, day 7): 99.8%
Percentage of Compound 1 remaining compared to T = 0 ([1]; AlSO4 in water, batch 14, day 14): 100%
Percentage of Compound 1 remaining compared to T = 0 ([1]; Ca(NO3)2 in water, batch 14, day 0): 100%
Percentage of Compound 1 remaining compared to T = 0 ([1]; Ca(NO3)2 in water, batch 14, day 7): 99.4%
Percentage of Compound 1 remaining compared to T = 0 ([1]; Ca(NO3)2 in water, batch 14, day 14): 98.9%
Percentage of Compound 1 remaining compared to T = 0 ([1]; CaCO3 in water, batch 14, day 0): 100%
Percentage of Compound 1 remaining compared to T = 0 ([1]; CaCO3 in water, batch 14, day 7): 79.5%
Percentage of Compound 1 remaining compared to T = 0 ([1]; CaCO3 in water, batch 14, day 14): 66.0%
Percentage of Compound 1 remaining compared to T = 0 ([1]; CaCl2 in water, batch 14, day 0): 100%
Percentage of Compound 1 remaining compared to T = 0 ([1]; CaCl2 in water, batch 14, day 7): 100%
Percentage of Compound 1 remaining compared to T = 0 ([1]; CaCl2 in water, batch 14, day 14): 97.9%
Percentage of Compound 1 remaining compared to T = 0 ([1]; CoCl2 in water, batch 14, day 0): 100%
Percentage of Compound 1 remaining compared to T = 0 ([1]; CoCl2 in water, batch 14, day 7): 101%
Percentage of Compound 1 remaining compared to T = 0 ([1]; CoCl2 in water, batch 14, day 14): 101%
Percentage of Compound 1 remaining compared to T = 0 ([1]; CuCl2 in water, batch 14, day 0): 100%
Percentage of Compound 1 remaining compared to T = 0 ([1]; CuCl2 in water, batch 14, day 7): 99.5%
Percentage of Compound 1 remaining compared to T = 0 ([1]; CuCl2 in water, batch 14, day 14): 98.3%
Percentage of Compound 1 remaining compared to T = 0 ([1]; CuSO4 in water, batch 14, day 0): 100%
Percentage of Compound 1 remaining compared to T = 0 ([1]; CuSO4 in water, batch 14, day 7): 100%
Percentage of Compound 1 remaining compared to T = 0 ([1]; CuSO4 in water, batch 14, day 14): 99.4%
Percentage of Compound 1 remaining compared to T = 0 ([1]; MnCl2 in water, batch 14, day 0): 100%
Percentage of Compound 1 remaining compared to T = 0 ([1]; MnCl2 in water, batch 14, day 7): 98.9%
Percentage of Compound 1 remaining compared to T = 0 ([1]; MnCl2 in water, batch 14, day 14): 99.2%
Percentage of Compound 1 remaining compared to T = 0 ([1]; NH4Cl in water, batch 14, day 0): 100%
Percentage of Compound 1 remaining compared to T = 0 ([1]; NH4Cl in water, batch 14, day 7): 101%
Percentage of Compound 1 remaining compared to T = 0 ([1]; NH4Cl in water, batch 14, day 14): 99.8%
Percentage of Compound 1 remaining compared to T = 0 ([1]; NaF in water, batch 14, day 0): 100%
Percentage of Compound 1 remaining compared to T = 0 ([1]; NaF in water, batch 14, day 7): 101%
Percentage of Compound 1 remaining compared to T = 0 ([1]; NaF in water, batch 14, day 14): 100%
Percentage of Compound 1 remaining compared to T = 0 ([1]; NaNO3 in water, batch 14, day 0): 100%
Percentage of Compound 1 remaining compared to T = 0 ([1]; NaNO3 in water, batch 14, day 7): 99.2%
Percentage of Compound 1 remaining compared to T = 0 ([1]; NaNO3 in water, batch 14, day 14): 99.4%
Percentage of Compound 1 remaining compared to T = 0 ([1]; NiSO4 in water, batch 14, day 0): 100%
Percentage of Compound 1 remaining compared to T = 0 ([1]; NiSO4 in water, batch 14, day 7): 98.4%
Percentage of Compound 1 remaining compared to T = 0 ([1]; NiSO4 in water, batch 14, day 14): 99.1%
Percentage of Compound 1 remaining compared to T = 0 ([1]; WFl, batch 14, day 0): 100%
Percentage of Compound 1 remaining compared to T = 0 ([1]; WFl, batch 14, day 7): 98.7%
Percentage of Compound 1 remaining compared to T = 0 ([1]; WFl, batch 14, day 14): 97.7%
degradation in aqueous solution with carbonate ions ([1]; vs other mineral salts): degrades more rapidly
succinic acid release ([2]; incubated with microsomes): releases succinic acid over time
Compound 1 detected by LCMS ([2]; batch 12, 0 min): 0.934 mM
Compound 1 detected by LCMS ([2]; batch 12, 5 min): 0.688 mM
Compound 1 detected by LCMS ([2]; batch 12, 15 min): 0.388 mM
Compound 1 detected by LCMS ([2]; batch 12, 60 min): 0.080 mM
solubility ([3]; 0.9% saline, saline or isotonic): > 500 mg/mL
solubility ([3]; aqueous buffer, PBS (pH 7.4)): 190 mg/mL
solubility ([3]; pH 7.4, aqueous buffer, PBS pH7.4): > 100 µM
solubility ([3]; water): > 350 mg/mL
degradation (loss in purity and assay) ([4]; (non-purified) tap water): Significant degradation
degradation (loss in purity and assay) ([4]; (purified) HPLC grade water): not observed
SMILES: COC(=O)CCC(=O)SCCNC(C)=O [Compound 1, Methyl 3-[(2-acetylaminoethylthio)carbonyl]propionate]
